Data reported in patent US6914045B2, “Glycopeptide antibiotics” (Wyeth Holdings Corporation, priority 2001, dated 2005).
In brackets after ≈: the same amount, converted by molar mass.

Experiments:
Enterococcus sp. = experiment: in vitro antibacterial evaluation, MIC by broth dilution; assay type: cell-based; conditions: broth dilution, 18 hours at 35° C.
In short: (§1)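 MIC, the lowest antibiotic concentration preventing growth, was read across 64-0.06 μg/mL with 5×10^5 CFU/mL inoculum. Method followed NCCLS M7-A2 broth dilution using Mueller-Hinton II; Gram-positive strains covered recent methicillin-, penicillin- and/or vancomycin-resistant clinical isolates.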

Staphylococcus sp. = experiment: as above; assay type: cell-based; conditions: broth dilution, 18 hours at 35° C.
In short: as §1

Streptococcus sp. = experiment: as above; assay type: cell-based; conditions: broth dilution, 18 hours at 35° C.
In short: as §1

[1] = test system: Staphylococcus aureus-SMITH (GC 4543); experiment: acute lethal infection in mice; assay type: in vivo; conditions: acute lethal infection, female CD-1 mice, intraperitoneal challenge, intravenous 30 min. after infection, 7 day survival
In short: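 ED50 from 7 day survival ratios pooled over 3 separate tests. Female CD-1 mice, 20+/−2 gm, ip bacterial challenge (trypticase soy broth or hog gastric mucin) lethal to untreated controls in 24-48 hr; iv dosing 30 min after infection in saline or 5% dextrose, n=5/dose.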

[2] = anatomic pathology (histopathology of heart and kidney) in mice; assay type: in vivo; conditions: CD-1 mice, 20 mg/kg intravenously daily for 9 days, necropsy day 10, microscopic histopathology
Procedure: Samples of tissues from necropsied mice were formalin-fixed, paraffin-embedded, sectioned, stained with hematoxylin and eosin, and examined microscopically. Histopathologic findings were recorded. These findings were subjectively graded on a scale corresponding to slight, mild, moderate, marked and severe as compared to untreated controls.

Escherichia coli = experiment: in vitro antibacterial evaluation, MIC by broth dilution; assay type: cell-based; conditions: broth dilution, 18 hours at 35° C.
In short: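 MIC is the lowest antibiotic concentration (tested 64-0.06 μg/mL) preventing growth of a 5×10^5 CFU/mL inoculum. Determined by broth dilution in Mueller-Hinton II medium following NCCLS standard M7-A2.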

Cc1ccc(Oc2cccc(-c3nc4cc(CC5NC(=O)C(C(C)c6ccccc6)NC(=O)CNC(=O)C(CO)NC(=O)C(C(O)C6CNC(=N)N6C6OC(CO)C(O)C(O)C6O)NC(=O)C(C(O)C6CNC(=N)N6)NC5=O)ccc4o3)c2)cc1 (stereo not drawn) [Example 28, Cyclo[3-[2-[3-(4-methylphenoxy)phenyl]-1,3-benzoxazol-5-yl]alanyl-3-(2-iminoimidazolidin-4-yl)seryl-3-(3-hexopyranosyl-2-iminoimidazolidin-4-yl)serylserylglycyl-β-methylphenyl-alanyl]]
MIC Enterococcus faecalis (ATCC 29212) (Enterococcus sp.; strain ATCC 29212): 8 µg/mL (≈ 6.79 µM) | MIC Enterococcus faecalis (GC 2242) (Enterococcus sp.; strain GC 2242): 4 µg/mL (≈ 3.39 µM) | MIC Enterococcus faecium (GC 2243) (Enterococcus sp.; strain GC 2243): 8 µg/mL (≈ 6.79 µM) | MIC Enterococcus faecalis (GC 2691) (Enterococcus sp.; strain GC 2691): 8 µg/mL (≈ 6.79 µM) | MIC Enterococcus faecalis (GC 3059) (Enterococcus sp.; strain GC 3059): 8 µg/mL (≈ 6.79 µM) | MIC Enterococcus faecalis (GC 4552) (Enterococcus sp.; strain GC 4552): 8 µg/mL (≈ 6.79 µM) | MIC Enterococcus faecalis (GC 4553) (Enterococcus sp.; strain GC 4553): 4 µg/mL (≈ 3.39 µM) | MIC Enterococcus faecalis (GC 4554) (Enterococcus sp.; strain GC 4554): 8 µg/mL (≈ 6.79 µM) | MIC Enterococcus faecium (GC 4556) (Enterococcus sp.; strain GC 4556): 8 µg/mL (≈ 6.79 µM) | MIC Enterococcus faecium (GC 4557) (Enterococcus sp.; strain GC 4557): 4 µg/mL (≈ 3.39 µM) | MIC Enterococcus avium (GC 4558) (Enterococcus sp.; strain GC 4558): 4 µg/mL (≈ 3.39 µM) | MIC Enterococcus faecalis (GC 6189) (Enterococcus sp.; strain GC 6189): 8 µg/mL (≈ 6.79 µM) | MIC Staphylococcus aureus (ATCC 29213) (Staphylococcus sp.; strain ATCC 29213): 8 µg/mL (≈ 6.79 µM) | MIC Staphylococcus aureus (GC 1131) (Staphylococcus sp.; strain GC 1131): 8 µg/mL (≈ 6.79 µM) | MIC Staphylococcus aureus (GC 3051) (Staphylococcus sp.; strain GC 3051): 4 µg/mL (≈ 3.39 µM) | MIC Staphylococcus aureus (GC 3053) (Staphylococcus sp.; strain GC 3053): 4 µg/mL (≈ 3.39 µM) | MIC Staphylococcus aureus (GC 4541) (Staphylococcus sp.; strain GC 4541): 8 µg/mL (≈ 6.79 µM) | MIC Staphylococcus aureus (GC 4542) (Staphylococcus sp.; strain GC 4542): 8 µg/mL (≈ 6.79 µM) | MIC Staphylococcus aureus-SMITH (GC 4543) (Staphylococcus sp.; strain GC 4543): 4 µg/mL (≈ 3.39 µM) | MIC Staphylococcus aureus (GC 4544) (Staphylococcus sp.; strain GC 4544): 8 µg/mL (≈ 6.79 µM) | MIC Staphylococcus aureus (GC 4545) (Staphylococcus sp.; strain GC 4545): 4 µg/mL (≈ 3.39 µM) | MIC Staphylococcus haemolyticus (GC 4546) (Staphylococcus sp.; strain GC 4546): 4 µg/mL (≈ 3.39 µM) | MIC Coagulase Negative Staphylococcus (GC 4547) (Staphylococcus sp.; strain GC 4547): 8 µg/mL (≈ 6.79 µM) | MIC Coagulase Negative Staphylococcus (GC 4548) (Staphylococcus sp.; strain GC 4548): 4 µg/mL (≈ 3.39 µM) | MIC Coagulase Negative Staphylococcus (GC 4549) (Staphylococcus sp.; strain GC 4549): 4 µg/mL (≈ 3.39 µM) | MIC Coagulase Negative Staphylococcus (GC 4551) (Staphylococcus sp.; strain GC 4551): 4 µg/mL (≈ 3.39 µM) | MIC Coagulase Negative Staphylococcus (GC 6257) (Staphylococcus sp.; strain GC 6257): 2 µg/mL (≈ 1.7 µM) | MIC Streptococcus pneumoniae (ATCC 6301) (Streptococcus sp.; strain ATCC 6301): 4 µg/mL (≈ 3.39 µM) | MIC Streptococcus pneumoniae (GC 1894) (Streptococcus sp.; strain GC 1894): 4 µg/mL (≈ 3.39 µM) | MIC Streptococcus pyogenes (GC 4563) (Streptococcus sp.; strain GC 4563): 1 µg/mL (≈ 0.849 µM) | MIC Streptococcus agalactiae (GC 4564) (Streptococcus sp.; strain GC 4564): 4 µg/mL (≈ 3.39 µM) | MIC Streptococcus pneumoniae (GC 4565) (Streptococcus sp.; strain GC 4565): 4 µg/mL (≈ 3.39 µM) | median effective dose (ED50), Staphylococcus aureus-SMITH (GC 4543) [1]: 8 mg/kg | Anatomical Pathology (Day 10), Heart [2]: 0 | Anatomical Pathology (Day 10), Kidney [2]: 0 | MIC Escherichia coli (ATCC 25922) (Escherichia coli; strain ATCC 25922): 64 µg/mL (≈ 54.3 µM) | MIC Escherichia coli (GC 4559) (Escherichia coli; strain GC 4559): 64 µg/mL (≈ 54.3 µM) | MIC Escherichia coli (GC 4560) (Escherichia coli; strain GC 4560): 8 µg/mL (≈ 6.79 µM)
